Reference: patent US20180310561A1 (priority 2015, published 2018)

Columns and labels:
Botrytis cinerea = assay: Activity against the grey mold Botrytis cinerea in the microtiterplate test; format: cell-based; details: relative growth vs active compound-free control (100%), MTP measured at 405 nm 7 days after inoculation
Septoria tritici = assay: Activity against leaf blotch on wheat caused by Septoria tritici (microtiter plate); format: cell-based; details: relative growth vs active compound-free control (100%), MTP measured at 405 nm 7 days after inoculation
Pyricularia oryzae = format: cell-based; details: relative growth vs active compound-free control (100%), MTP measured at 405 nm 7 days after inoculation
Alternaria solani = assay: Activity against early blight caused by Alternaria solani (microtiter plate); format: cell-based; details: relative growth vs active compound-free control (100%), MTP measured at 405 nm 7 days after inoculation
Leptosphaeria nodorum = assay: Activity against wheat leaf spots caused by Leptosphaeria nodorum (microtiter plate); format: cell-based; details: relative growth vs active compound-free control (100%), MTP measured at 405 nm 7 days after inoculation
Fusarium culmorum = assay: Green house: control of culm rot on pearl millet caused by Fusarium culmorum; format: in vivo; details: 63 ppm spray on pearl millet seedlings; inoculated 7 days later; % diseased leaf area assessed after 6 days; untreated control 90
Procedure: The spray solutions were prepared in several steps:
The stock solution were prepared: a mixture of acetone and/or dimethylsulfoxide and the wetting agent/emulsifier Wettol, which is based on ethoxylated alkylphenoles, in a relation (volume) solvent-emulsifier of 99 to 1 was added to 25 mg of the compound to give a total of 5 ml. Water was then added to total volume of 100 ml.
This stock solution was diluted with the described solvent-emulsifier-water mixture to the given concentration.
Pot-grown pearl millet seedlings were sprayed to run-off with an aqueous suspension, containing the concentration of active ingredient or their mixture as described below.The plants were allowed to air-dry. Seven days later the plants were inoculated with an spore suspension of Fusarium culmorum in a aqueous biomalt solution. Then the trial plants were immediately transferred to a humid chamber. After 6 days at 23-25° C. and a relative humidity close to 100% the extent of fungal attack on the leaves was visually assessed as % diseased leaf area.

## Cc1ccc(C2=CC(C)(C)Cc3ccccc32)cc1C
Botrytis cinerea
  Growth (%) at 32 ppm Botottis cinerea: 84%
Septoria tritici
  Growth (%) at 32 ppm Septona triad: 93%

## Cc1cc(C2=NC(C)(C)Cc3ccccc32)cnc1C
Pyricularia oryzae
  Growth (%) at 31 ppm Pyricularia: 23%
Alternaria solani
  Growth (%) at 31 ppm Alternaria solanioryzae: 47%
Leptosphaeria nodorum
  Growth (%) at 31 ppm Leptosphaeria nodorum: 72%

## Cc1cc(C2=NC(C)(C)Cc3c(Br)cccc32)cnc1C [I-1, 5-Bromo-1-(5,6-dimethyl-3-pyridyl)-3,3-dimethyl-4H-isoquinoline]
Botrytis cinerea
  Growth (%) at 32 ppm Botottis cinerea: 0%
Septoria tritici
  Growth (%) at 32 ppm Septona triad: 0%
Fusarium culmorum
  Disease (%) at 63 ppm: 53%

## Cc1cc(C2=NC(C)(C)Cc3c(F)cccc32)cnc1C [drawing 1380]
Leptosphaeria nodorum
  Growth (%) at 31 ppm Leptosphaeria nodorum: 39%

## Cc1cc(C2=NC(C)(C)Cc3c(F)cccc32)cnc1C [drawing 1382]
Fusarium culmorum
  Disease (%) at 63 ppm: 88%
